# Patent US10703755B2, “Substituted purine derivative” (SUMITOMO DAINIPPON PHARMA CO., LTD., priority 2016, dated 2020)
# Target: human TLR7 (Homo sapiens (Human), UniProt Q9NYK1)
# Experiment: Test for evaluating the inhibition of the activation of human TLR7 (SEAP reporter, TLR7/NF-κB/SEAPorter HEK293 cell)
# Format: cell-based
# Settings: R-848 200 nmol/L; for IC50: SEAP reporter; for inhibitory effect against TLR7 in the test for evaluating inhibition of the activation of TLR7: SEAP activity, result in words
# How it was run: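 HEK293 cells stably expressing full-length human TLR7 and an NF-κB-driven SEAP reporter. They were grown in DMEM with 10% FBS and blasticidin, and seeded at 5×10^4 cells/well overnight at 37° C, 5% CO2. Inhibition of TLR7 activation was read as SEAP output.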
# Chain of human TLR7 (Q9NYK1 27-1049): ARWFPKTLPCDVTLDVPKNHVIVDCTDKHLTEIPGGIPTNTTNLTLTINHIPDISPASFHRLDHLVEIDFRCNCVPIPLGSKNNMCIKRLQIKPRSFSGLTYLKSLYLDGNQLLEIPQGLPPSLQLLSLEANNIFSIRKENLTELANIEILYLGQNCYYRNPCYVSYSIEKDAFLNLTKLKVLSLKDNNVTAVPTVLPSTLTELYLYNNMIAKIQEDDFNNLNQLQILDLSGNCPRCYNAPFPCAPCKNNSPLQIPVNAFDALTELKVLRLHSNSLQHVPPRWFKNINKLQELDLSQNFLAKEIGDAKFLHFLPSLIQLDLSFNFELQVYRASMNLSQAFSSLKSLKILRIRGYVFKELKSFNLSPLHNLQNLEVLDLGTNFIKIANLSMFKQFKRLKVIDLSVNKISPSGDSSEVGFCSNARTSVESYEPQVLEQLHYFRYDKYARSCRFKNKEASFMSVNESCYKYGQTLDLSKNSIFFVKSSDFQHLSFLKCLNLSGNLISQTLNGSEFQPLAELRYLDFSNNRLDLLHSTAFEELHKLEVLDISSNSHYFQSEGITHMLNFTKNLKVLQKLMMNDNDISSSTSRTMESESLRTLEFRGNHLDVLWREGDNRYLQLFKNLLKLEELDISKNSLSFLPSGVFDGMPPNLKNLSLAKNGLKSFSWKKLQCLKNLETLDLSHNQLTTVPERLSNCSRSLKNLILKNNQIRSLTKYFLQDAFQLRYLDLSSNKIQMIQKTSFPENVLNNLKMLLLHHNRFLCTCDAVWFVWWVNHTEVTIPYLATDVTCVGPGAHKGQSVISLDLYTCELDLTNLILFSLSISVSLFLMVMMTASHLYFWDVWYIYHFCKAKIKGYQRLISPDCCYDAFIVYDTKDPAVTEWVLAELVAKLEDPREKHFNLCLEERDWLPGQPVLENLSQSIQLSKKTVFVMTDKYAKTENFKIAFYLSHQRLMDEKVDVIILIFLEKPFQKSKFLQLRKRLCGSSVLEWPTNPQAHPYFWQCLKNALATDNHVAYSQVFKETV
SMILES,IC50 [µM],inhibitory effect against TLR7 in the test for evaluating inhibition of the activation of TLR7
"CCCCOc1nc(C)c2nc(-c3cncc(F)c3)n(Cc3ccccc3)c2n1 [Example 141, 9-Benzyl-2-butoxy-8-(5-fluoropyridin-3-yl)-6-methyl-9H-purine]",3.3,–
CCOc1nc(C)c2nc(-c3cncc(F)c3)n(Cc3cnn(C4CN5CCC4CC5)c3)c2n1 (stereo not shown) [Example 167],0.11,–
CCOc1nc(C)c2nc(-c3cncc(F)c3)n(Cc3ccc(C4=CN5CCC4CC5)cc3C#N)c2n1 [Example 363],0.592,–
COc1nc(C)c2nc(-c3cncc(F)c3)n(Cc3cnn(C)c3)c2n1 [Example 243],2.66,–
"CCOc1nc(N)c2nc(-c3cncc(F)c3)n(Cc3ccc(N(C)CCN(C)C)nc3)c2n1 [Example 64, N-(5-{[6-Amino-2-ethoxy-8-(5-fluoropyridin-3-yl)-9H-purin-9-yl]methyl}pyridin-2-yl)-N,N′,N′-trimethylethane-1,2-diamine]",0.68,–
"COc1nc(C)c2nc(-c3cncc(F)c3)n(Cc3ccc(O)cc3F)c2n1 [Example 404, 3-Fluoro-4-{[8-(5-fluoropyridin-3-yl)-2-methoxy-6-methyl-9H-purin-9-yl]methyl}phenol]",0.846,–
CCOc1nc(C)c2nc(-c3cncc(F)c3)n(Cc3ccc(OCC4CN5CCC4CC5)nc3)c2n1 (stereo not shown) [Example 73],0.16,–
CCOc1nc(N)c2nc(-c3cncc(F)c3)n(Cc3ccc(CN4CCN(C)C(=O)C4)cc3)c2n1 [Example 93],0.29,–

# The remaining compounds from weak to strong by IC50, led by results:
IC50 [µM],inhibitory effect against TLR7 in the test for evaluating inhibition of the activation of TLR7,SMILES
0.15,–,"CCOc1nc(N)c2nc(-c3cncc(F)c3)n(Cc3ccc(CN4C[C@@H]5C[C@H]4CN5C(C)=O)cc3)c2n1 [Example 126, 1-[(1S,4S)-5-(4-{[6-Amino-2-ethoxy-8-(5-fluoropyridin-3-yl)-9H-purin-9-yl]methyl}benzyl)-2,5-diazabicyclo[2.2.1]hept-2-yl]ethanone]"
0.085,–,CCOc1nc(C)c2nc(-c3cncc(F)c3)n(Cc3cnn(CCCN4CCCC4)c3)c2n1 [Example 247]
0.062,–,COc1nc(C)c2nc(-c3cncc(F)c3)n(Cc3ccc(C4=CN5CCC4CC5)c(F)c3)c2n1 [Example 357]
0.06,potent inhibitory effect against TLR7,CCOc1nc(N)c2nc(-c3cncc(F)c3)n(Cc3ccc(CN4CCN(C)CC4)cc3)c2n1 [Example 81]
0.036,potent inhibitory effect against TLR7,COc1nc(C)c2nc(-c3cccnc3)n(Cc3ccc(C4CCNCC4)cc3F)c2n1 [Example 345]
0.018,–,COc1nc(C)c2nc(-c3cncc(F)c3)n(Cc3ccc(C4CCNC4)cc3F)c2n1 (stereo not shown) [Example 435]
0.016,potent inhibitory effect against TLR7,"COc1nc(C)c2nc(-c3cncc(F)c3)n(Cc3ccc(O[C@H]4CCN(C)C4)cc3F)c2n1 [Example 414, 9-(2-fluoro-4-{[(3S)-1-methylpyrrolidin-3-yl]oxy}benzyl)-8-(5-fluoropyridin-3-yl)-2-methoxy-6-methyl-9H-purine]"
0.008,potent inhibitory effect against TLR7,"CCOc1nc(C)c2nc(-c3cncc(F)c3)n(Cc3ccc(CN4C[C@@H]5C[C@H]4CN5C)cc3F)c2n1 [Example 313, 2-ethoxy-9-(2-fluoro-4-{[(1S,4S)-5-methyl-2,5-diazabicyclo[2.2.1]hept-2-yl]methyl}benzyl)-8-(5-fluoropyridin-3-yl)-6-methyl-9H-purine]"
0.005,potent inhibitory effect against TLR7,"CCOc1nc(C)c2nc(-c3cncc(F)c3)n(Cc3ccc(CN4C[C@H]5C[C@@H]4CN5C)cc3)c2n1 [Example 110, 2-ethoxy-8-(5-fluoropyridin-3-yl)-6-methyl-9-(4-{[(1R,4R)-5-methyl-2,5-diazabicyclo[2.2.1]hept-2-yl]methyl}benzyl)-9H-purine]"
